From US9821042B2, “Use of antagonists of ghrelin or ghrelin receptor to prevent or treat stress-sensitive psychiatric illness” (Massachusetts Institute of Technology, priority 2012, dated 2017)
Like-named read-outs stand apart in the source and are kept apart here. Non-standard residues stand in square brackets, D forms with d. No end group written: not given here.

Tests used:
[1] = tested on: adult male Long Evans rats; assay: Auditory Pavlovian fear conditioning after systemic ghrelin receptor agonist injections in nonstressed rats; format: in vivo, rat; settings: for fear memory after a single injection: 1 day of injection, conditioning 24 h later; for long-term fear memory (conditional freezing to the tone): conditioning 24 h after last injection, test 48 h later
Description: Subjects. All experiments used adult male Long Evans rats (250-350 g, Taconic, Germantown, N.Y.), housed individually (68-72° F.; 12-h light-dark cycle, 7 AM lights on). Food and water (or 0.9% saline for adrenalectomy experiments) was provided ad libitum. Stressed and unstressed animals were housed in separate cubicles. All procedures were in accordance with the US National Institutes of Health (NIH) Guide for the Care and Use of Laboratory Animals and were approved by the MIT Institutional Animal Care and Use Committee and the Animal Care and Use Review Office of the USAMRMC.
(§1) Pavlovian Fear Conditioning.
To determine whether increased activation of the ghrelin receptor is sufficient for enhancement of fear memory, experiments were conducted using pharmacological agonism of GHSR-1a in non-stressed animals. […] MK-0677 (MK: 5d) or saline (VEH: 5d) was systemically administered once a day for five consecutive days in nonstressed rats to determine whether repeated ghrelin receptor agonism in the absence of stress is sufficient to increase fear learning and whether HPA hormones may play a role in this effect. […] One subset of animals was administered auditory fear conditioning 24 h after the last injection.

[2] = tested on: adult male Long Evans rats; assay: Elevated plus maze after systemic MK-0677; format: in vivo, rat; settings: 5 d systemic injections, single 8 minute session 24 h after last injection
Description: Rats received a daily systemic injection of MK-0677 (MK: 5d), an agonist of GHSR-1a, or vehicle (VEH: 5d) for five days at the endogenous ghrelin signaling nadir. Spontaneous freezing (a) and locomotion (b) were assessed in a novel context 24 h after the last injection. A separate group was assessed on the elevated plus maze in a single 8 minute session 24 h after the last injection. Total arm entries (c) and open arm time (d) were measured to assess exploratory behavior and innate anxiety, respectively. (e) Animals received Pavlovian fear conditioning 24 h before beginning daily handling injections of MK-0677 (Post FC MK: 5d) or vehicle (Post FC VEH: 5d) for 5d. […] All data are mean±s.e.m.
Elevated Plus Maze. Rats were tested for anxiety using an elevated plus maze (Hamilton Kinder; Poway, Calif.). The maze had two open arms (51 cm×12 cm each) and was located in a moderately lit room. Open arms consisted of black Plexiglas floors and no walls. The closed arms had black Plexiglas walls 40 cm high. […] Automated software (Motor Monitor 4.14) recorded the second by second movements of the animals while the experimenter made observations in an obscured corner. Each session lasted 8 m and both the observer and the software recorded the latency to exit the first arm and the number of entries into the open and closed arms. Additionally, the software recorded time spent in the each region of the maze. […]

CRF = assay: Brain CRF levels by ELISA after systemic MK-0677; format: in vivo, rat; settings: 5 d systemic injections, 24 h after final injection
Description: Rats received daily systemic injections of MK-0677 (MK: 5d), a GHSR-1a agonist, or saline (VEH: 5d) for five days at the endogenous ghrelin signaling nadir. (b) One group underwent auditory fear conditioning 24 h following the final injection. Fear acquisition was assessed by monitoring freezing levels. (c) Conditional freezing to the tone was assessed in a novel context 48 h following fear conditioning. A separate group was sacrificed 24 h following the final injection and microdissections of hypothalamus and amygdala performed. Brain CRF levels were measured using ELISA (d) hypothalamus, (e), basolateral complex of the amygdala). * p<0.05, ** p<0.01, ˜p<0.10 in planned comparisons.
Hormone Assays. Corticosterone, acylated ghrelin, growth hormone and CRF levels were determined using commercial ELISA kits. For corticosterone, non-acidified plasma was diluted 1:25 in assay buffer 15 (Enzo Life Sciences; Farmingdale, N.Y.). For acylated ghrelin, the acidified sample was used for the active ghrelin ELISA (Millipore; Billerica, Mass.) and processed according to the manufacturer's protocol. […] For growth hormone, brain tissue was homogenized 1:6 in lysis buffer and was assayed as per manufacturer's protocol (Millipore; Billerica, Mass.). […]

[3] = tested on: adult male Long Evans rats; assay: Auditory fear conditioning after repeated intra-BLA infusions of ghrelin receptor agonist; format: in vivo, rat; settings: intra-BLA infusion daily for five days
Description: Cannulae Implants. Rats were anesthetized with a cocktail of 10 mg/kg acepromazine, […], and 100 mg/kg ketamine (1 ml/kg; i.p.). Rats were mounted into a dual arm stereotaxic frame (Kopf Instruments; Tujunga, Calif.). The rats were then bilaterally implanted with 23-gauge stainless steel guide cannulae aimed 1 mm above the lateral amygdala: A/P −2.0, M/L+/−5.3, D/V −5.4, relative to brain surface and bregma (45). The cannulae were secured by the placement of three jeweler screws in the skull and dental acrylic. Dummy cannulae extending 1 mm past the tip of the guide cannulae were placed into the guide cannula after surgery and changed every other day. Rats received 0.03 mg/kg of Buprenex (1 ml/kg; s.c.) as post-operative pain management every 12 h for at least 24 h and up to 3 days. All rats recovered for a minimum of 5 days before experimentation commenced.
Drug Infusion. For intra-cranial infusions, rats were placed in 5-gallon buckets containing bedding. The dummy cannulae were removed and injectors (30G stainless steel cannulae; extending 1 mm beyond the cannulae end) were inserted. The injectors were attached to Hamilton syringes (10 ul; Hamilton Co., Reno, Nev.) via polyethylene tubing, and the syringes were mounted in a Harvard syringe pump (Harvard Apparatus; Holliston, Mass.). Infusions were given at a rate of 0.1 ul/m for 5 m for a total volume of 0.5 ul/side, with 1 m for diffusion, before the injectors were removed and new dummy cannulae were inserted.
as §1
Fear memory requires plasticity in numerous brain regions but the basolateral complex of the amygdala (BLA) is particularly important for both formation and storage of learned fear.

[4] = cited from earlier work; for crossing of the blood-brain barrier: in vivo
growth hormone release = settings: dose of 0.5 mg/ml; cited from earlier work
corticosterone = assay: Plasma corticosterone by ELISA in stressed rats given DLys3; format: in vivo, rat; settings: stressed animals, tail bleeds in final 30 m of final stress session
Description: Rats received either daily handling (NS) or immobilization stress (STR). Each day, a systemic injection of either Dlys3-GHRP-6 (Dlys3), an antagonist of GHSR-1a, or saline (VEH) was administered within 30 m of handling or stress initiation. (a) Animals received auditory fear conditioning 24 h after the last stress or handling session. […] (c) In a subset of animals in the STR group, tail bleeds were performed during the final 30 m of the final stress session and plasma corticosterone levels were measured using ELISA. All data are mean±s.e.m. * p<0.05, ˜p<0.10 in planned comparisons.
Hormone Assays. Corticosterone, acylated ghrelin, growth hormone and CRF levels were determined using commercial ELISA kits. For corticosterone, non-acidified plasma was diluted 1:25 in assay buffer 15 (Enzo Life Sciences; Farmingdale, N.Y.). For acylated ghrelin, the acidified sample was used for the active ghrelin ELISA (Millipore; Billerica, Mass.) and processed according to the manufacturer's protocol. […] For growth hormone, brain tissue was homogenized 1:6 in lysis buffer and was assayed as per manufacturer's protocol (Millipore; Billerica, Mass.). For CRF, brain tissue collected by micro-dissection was homogenized 1:30 w/v in lysis buffer and assayed per manufacturer's protocol (Kamiya Biomedical Company, Seattle, Wash.).

GHSR1a = GHSR1a (Homo sapiens, UniProt Q92847); settings: Tocris Bioscience literature; read-out: IC50 as inhibitor of GHSR1a; cited from earlier work
melanocortin receptors = settings: cited from earlier work
[5] = tested on: adult male Long Evans rats; assay: Chronic immobilization stress followed by auditory fear conditioning, ghrelin receptor blockade during stress; settings: for long-term fear memory in stressed rats (stress-enhanced fear): daily systemic injection at start of immobilization stress, 4 h/d 14 d
Description: Drug Preparation. For systemic drug delivery, rats were injected with 1 ml/kg (i.p.) of the appropriate solution. All drugs were solubilized in 0.9% saline (vehicle) such that injection volumes remained constant for each experiment. […] D-Lys3-GHRP-6 (Tocris Biosciences; Minneapolis, Minn.) was diluted to 2.74 ug/ml in vehicle. […] D-Lys3-GHRP-6 was injected within 30 m of the start of immobilization stress or following handling.
Immobilization Stress. Immobilization stress was administered 4 h per day for 1-14 consecutive days, depending on the experiment. Animals were placed in Decapicone plastic bags (Braintree Scientific; Braintree, Mass.), which were secured at the tail. Stress occurred in a lab room used for no other procedures. All stress sessions were performed between LOAM and 4 PM. Unstressed control rats were handled daily for 30 s. For further parallel control parameters, food was removed from the unstressed rats daily for the same 4 h period in which stressed animals were immobilized and, therefore, without food.
Pavlovian Fear Conditioning. Fear conditioning experiments were conducted in a modified chamber (MED Associates; St. Albans, Vt.) housed in a sound-attenuated cubicle. The animals were placed in individual chambers and infrared video of each session was recorded. Each experiment used auditory fear conditioning wherein rats received 3-5 tone (2 kHz, 85 dB, 10-16s)-footshock (1-2s, 0.4-0.7 mA) pairings in a unique context (metal shock grid floors, chamber fan on, 0.3% PineSol odor, house and room lights on). Animals were allowed 2-3 m to habituate to the chamber before tone-footshock pairings were given at intervals of 1-4 m. Fear memory was tested 24-72 h later by placing the animals in a novel context (white Plexiglas plastic floors, curved Plexiglas wall inserts, fans off, 1% acetic acid odor, house and room lights off). One to 5 m after placement in the novel context, fear to the tone was assessed either by presenting a continuous tone (2 kHz, 85 dB, 8 minutes) or several discrete tones (15 10-16s tones with 1-4 m ISI). Freezing was measured using commercial software (VideoFreeze, MedAssociates, St. Albans, Vt.).
Statistics. For each fear memory session, conditional freezing was assessed as a percentage of time spent freezing, a probability estimate that is amenable to analysis with parametric statistics. These probability estimates of freezing, along with other measures, were analyzed using ANOVA. Post hoc comparisons in the form of Fisher's PLSD tests were performed after a significant omnibus F-ratio (p<0.05). […] All data where p>0.10 are identified as not significant (ns).
To determine whether ghrelin signaling is necessary for stress-related enhancement of fear memory, ghrelin receptor signaling was blocked during repeated stress sessions. […] Twenty-four hours following the final stress or handling session, auditory fear conditioning was administered and fear to the tone was assessed in a subsequent session.

[6] = systemic injection once a day for 5 days, nonstressed rats

Sequence of GHSR1a (Q92847 whole entry): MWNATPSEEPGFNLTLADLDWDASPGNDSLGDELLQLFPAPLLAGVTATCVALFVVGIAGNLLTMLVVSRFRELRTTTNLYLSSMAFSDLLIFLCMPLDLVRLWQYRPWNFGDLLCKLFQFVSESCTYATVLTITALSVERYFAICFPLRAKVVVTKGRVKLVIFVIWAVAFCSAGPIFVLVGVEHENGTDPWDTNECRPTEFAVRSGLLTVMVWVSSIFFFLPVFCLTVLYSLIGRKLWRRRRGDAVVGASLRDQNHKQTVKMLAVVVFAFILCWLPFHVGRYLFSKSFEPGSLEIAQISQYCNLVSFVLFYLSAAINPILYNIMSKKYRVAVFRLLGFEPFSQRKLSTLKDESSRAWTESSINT

With `CC(C)(N)C(=O)N[C@H](COCc1ccccc1)C(=O)N1CCC2(CC1)CN(S(C)(=O)=O)c1ccccc12` [MK-0677] the “fear memory after a single injection” value [1] was “trend towards impairment”, the “fear memory after a single injection” value ([1]; listed as MK677) was “no effect” and the “expression of previously acquired auditory fear memory” value ([1]; conditioning 24 h before 5 d of injections, test 24 h after last injection) was “not affected”. For the same compound, the “fear memory after 3 days of injections” value ([1]; daily injections for 3 days) was “no effect”, the “fear memory after a single injection followed by 14 d delay” value ([1]; single injection, 14 d in vivarium before conditioning) was “not sufficient to enhance fear” and the “fear acquisition during conditioning (freezing)” value [1, 6] was “did not alter”. For the same compound, the “long-term fear memory (conditional freezing to the tone)” value [1, 6] was “significantly enhanced”, the “long-term fear memory (conditional freezing to the tone)” value ([1]; systemic injection once a day for 5 days, nonstressed rats, listed as MK677) was “increased fear memory” and the “innate anxiety (open arm time)” value [2] was “not altered”. For the same compound, the “amygdalar CRF level” value (CRF) was “trend for repeated ghrelin receptor activation to decrease”, the “hypothalamic CRF level” value (CRF) was “no change” and the “freezing during fear conditioning” value [3] was “not altered”. For the same compound, the long-term fear memory [3] was “significantly enhanced”, the long-term fear memory ([3]; listed as MK677) was “sufficient to enhance fear memory” and the “crossing of the blood-brain barrier” value [4] was “readily crosses the blood-brain barrier”. For the same compound, the half-life ([4]; ref 30) was 5 to 6 h, the half-life ([4]; refs 47, 48) was “over six” and the growth hormone release (growth hormone release) was “significant and prolonged increases”. For the same compound, the tolerability (growth hormone release) was “well-tolerated”.

For H[dW][dK]W[dF]K-NH2 [D-Lys3-GHRP-6], the “stress-induced HPA activation as corticosterone secretion” value (corticosterone) is listed as “did not blunt”, the IC50 (GHSR1a) is listed as 0.9 µM and the Ki (melanocortin receptors) is listed as 26 to 120 µM. For the same compound, the “crossing of the blood-brain barrier” value [4] was “crosses the blood brain barrier”, the “crossing of the blood-brain barrier” value ([4]; listed as DLys3) was “crosses the blood-brain barrier” and the “long-term fear memory in stressed rats (stress-enhanced fear)” value ([5]; listed as DLys3) was “completely reversed stress-enhanced fear”. The “long-term fear memory in stressed rats (stress-enhanced fear)” value ([5]; listed as Dlys-3) was “sufficient to prevent stress-related enhancement of fear memory”, the “stress enhancement of fear acquisition” value ([5]; daily systemic injection during immobilization stress) was “not seen” and the “fear memory in nonstressed controls” value ([5]; daily systemic injection with daily handling) was “no effect”.

In the case of “acylated ghrelin: acylated (bioactive) form of the peptide hormone ghrelin, infused into the BLA”, the long-term fear memory ([3]; listed as bioactive ghrelin) is given as “replicated” and the half-life ([4]; ref 29) is given as ~30 m.
